{
  "source": "paper PMC9376946",
  "about": "“Peptide-RNA Coacervates as a Cradle for the Evolution of Folded Domains” (Journal of the American Chemical Society, 2022)",
  "key": {"polyU [1]": {"tested_on": "polyU", "assay": "Coacervate (droplet) formation with polyU, optical microscopy", "format": "physicochemical", "protocol": "Optical microscopy images of phase-separated samples were taken at the de Picciotto Cancer Cell Observatory Life Sciences Core Facilities (Weizmann Institute of Science) using a 100× objective (oil immersion) on a Leica DMI8 microscope with differential interface contrast. We used 1–2 μL of the sample to make a small drop in an imaging chamber produced by attaching a coverslip to a clean glass slide using a thin strip of double-sided tape (AJ Sign World). Images were processed using the software package Fiji (NIH).\nLyophilized, spin-labeled peptides were dissolved in Milli-Q water and centrifuged at 4000 rpm for 10 min to remove insoluble aggregates. The soluble fractions were used to prepare stock solutions of 250–500 μM peptide. Labeled peptide concentrations were determined by comparing the area under the curve of the EPR signal against that of standard solutions of 10–285 μM TEMPO. For the EPR measurements in D2O, 200 μL of the stock solution was lyophilized and re-dissolved in D2O. The concentration of the unlabeled peptide stock solutions was determined using the bicinchoninic acid assay (Thermo Fisher Scientific) and ranged from 0.8 to 1.2 mM peptide. A stock solution of 500 mM MES, pH 5.6 was used to adjust all samples to a final concentration of 50 mM MES, pH 5.6. Aliquots of 10 mg/mL polyuridylic acid (polyU; Sigma Aldrich) were prepared in Milli-Q water and diluted as necessary. For CW-EPR measurements, a quartz capillary of 0.6 mm i.d. and 0.84 mm o.d. was filled with 7–8 μL of the sample and sealed with Critoseal (Fisherbrand, Fisher Scientific) at one end. A single capillary was placed in an X-band EPR tube of 2 mm i.d. and 2.4 mm o.d. for measurements, except for spin concentration below 50 μM, where two capillaries were used.\nEach sample was freshly prepared and the time to collect […] CW-EPR data was 30–40 min."}, "[2]": {"details": "earlier study, trifluoroethanol titration followed by CD; ref [17]; cited from earlier work"}, "polyU [3]": {"tested_on": "polyU", "details": "ref [17]; cited from earlier work", "source_text": "The basis for the work presented here is the construct Precursor-Arg (PA).[17] PA consists of a single helix-hairpin-helix (HhH) motif and is constructed from an alphabet of only 10 amino acid types. The sequence of PA (Table 1) is biased specifically for those amino acids that were thought to be present on the early earth[35] and is the result of an ancestor sequence reconstruction of the (HhH)2-Fold protein family followed by an experimental deconstruction.[17] PA has two positively charged patches—located at the N-terminus of the first α-helix (residues 1–4, RIRR) and on the second α-helix ... || Using the ColabFold implementation of AlphaFold2,[33] a model of a putative PA dimer was predicted (Figure 1A). […] The dimerization potential of PA was further confirmed by MD simulations (Figure S6). […] This option relies on the dimer having conformations where positive and negative charges are separated, allowing for efficient bidentate binding to the polyU."}},
  "data": [
    {"sequence": "RVRRSEIPLGIELEAGTLRLARRPEIRVA [SA]", "values": [
      {"measurement": "coacervate formation with polyU", "setting": "polyU [1]; concentrations not given", "result": "did not form coacervates with polyU"},
      {"measurement": "coacervate formation with polyU", "setting": "polyU [1]; unlabeled peptide, 1 mg/mL polyU, aggregation also previously reported, ref [17]", "result": "did not form coacervates but rather aggregates"},
      {"measurement": "α-helical propensity", "setting": "[2]", "result": "lower α-helical propensity than PA"},
      {"measurement": "coacervate formation or precipitation with polyU (earlier study)", "setting": "polyU [3]", "result": "precipitates with polyU rather than forms coacervates"}
    ]}
  ]
}
